Data published in patent US11566022B2, “3-(5-methoxy-1-oxoisoindolin-2-yl)piperidine-2,6-dione derivatives and uses thereof” (NOVARTIS AG, priority 2019, dated 2023).
Where two headings read alike, the source gives them in different places.

Molecular target: HiBit-WIZ fusion protein (Homo sapiens, UniProt O95785+Q96SW2)
Test: Quantification of WIZ protein levels in HiBit tag fusion protein assay (WIZ HiBit assay in 293T cells)
Type: cell-based
Parameters: Dmax: dose or concentration left out as unconfirmed
[1] = HEK-293T, 100 minus Amax; 293T cells; read-out: % degradation of WIZ (100-Amax)
[2] = HEK-293T, DMSO-normalized, curve-fitted percentage of WIZ-HiBit remaining at 25 uM; 293T cells; read-out: WIZ Amax
[3] = WIZ HiBit assay in 293T cells; 10-point, 5-fold dose response, highest concentration 25 μM, about 18 hours; read-out: WIZ AC50

Chain of HiBit-WIZ fusion protein (O95785 whole entry, the tested form may be a part): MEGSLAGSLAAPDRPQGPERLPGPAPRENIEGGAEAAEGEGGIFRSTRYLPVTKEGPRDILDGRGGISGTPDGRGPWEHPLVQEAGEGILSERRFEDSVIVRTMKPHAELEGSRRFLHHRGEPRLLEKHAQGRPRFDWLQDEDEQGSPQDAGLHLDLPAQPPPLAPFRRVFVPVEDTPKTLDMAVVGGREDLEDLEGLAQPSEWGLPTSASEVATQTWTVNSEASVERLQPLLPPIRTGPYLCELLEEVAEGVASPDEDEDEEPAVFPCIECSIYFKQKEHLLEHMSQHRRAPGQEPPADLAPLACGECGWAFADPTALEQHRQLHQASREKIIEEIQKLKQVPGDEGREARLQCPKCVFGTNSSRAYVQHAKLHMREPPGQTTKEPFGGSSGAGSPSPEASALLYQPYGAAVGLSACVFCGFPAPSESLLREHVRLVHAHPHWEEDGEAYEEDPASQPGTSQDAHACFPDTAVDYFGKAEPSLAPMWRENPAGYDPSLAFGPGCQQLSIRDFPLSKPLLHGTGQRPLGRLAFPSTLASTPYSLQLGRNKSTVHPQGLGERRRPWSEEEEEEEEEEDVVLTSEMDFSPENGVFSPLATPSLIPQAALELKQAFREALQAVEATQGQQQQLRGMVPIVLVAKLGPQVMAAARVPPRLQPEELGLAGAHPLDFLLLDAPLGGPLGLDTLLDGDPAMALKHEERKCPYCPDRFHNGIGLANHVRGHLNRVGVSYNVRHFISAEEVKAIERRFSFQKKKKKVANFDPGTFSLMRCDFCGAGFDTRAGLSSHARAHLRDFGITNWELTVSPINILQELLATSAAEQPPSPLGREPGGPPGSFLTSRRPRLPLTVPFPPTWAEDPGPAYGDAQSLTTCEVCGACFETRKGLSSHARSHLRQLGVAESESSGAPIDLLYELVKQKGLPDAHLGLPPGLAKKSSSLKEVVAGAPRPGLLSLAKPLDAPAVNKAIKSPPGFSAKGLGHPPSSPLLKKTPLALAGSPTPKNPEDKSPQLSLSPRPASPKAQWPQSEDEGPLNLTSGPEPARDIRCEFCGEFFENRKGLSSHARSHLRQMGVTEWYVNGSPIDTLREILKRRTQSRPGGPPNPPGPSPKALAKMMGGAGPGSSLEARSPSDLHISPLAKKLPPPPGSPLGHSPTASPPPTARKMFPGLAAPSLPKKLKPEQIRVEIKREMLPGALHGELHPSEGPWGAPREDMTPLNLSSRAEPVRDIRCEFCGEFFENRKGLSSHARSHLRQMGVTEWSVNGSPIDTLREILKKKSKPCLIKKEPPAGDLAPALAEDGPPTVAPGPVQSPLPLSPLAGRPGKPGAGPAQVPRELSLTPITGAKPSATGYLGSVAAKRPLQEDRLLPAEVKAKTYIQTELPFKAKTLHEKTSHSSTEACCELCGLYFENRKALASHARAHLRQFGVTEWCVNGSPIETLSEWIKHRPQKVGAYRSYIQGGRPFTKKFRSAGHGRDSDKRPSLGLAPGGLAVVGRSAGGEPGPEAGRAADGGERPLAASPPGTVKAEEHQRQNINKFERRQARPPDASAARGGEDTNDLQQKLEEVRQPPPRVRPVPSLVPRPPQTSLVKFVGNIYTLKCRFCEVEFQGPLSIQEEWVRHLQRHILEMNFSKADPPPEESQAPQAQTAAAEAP
Chain of HiBit-WIZ fusion protein (Q96SW2 whole entry, the tested form may be a part): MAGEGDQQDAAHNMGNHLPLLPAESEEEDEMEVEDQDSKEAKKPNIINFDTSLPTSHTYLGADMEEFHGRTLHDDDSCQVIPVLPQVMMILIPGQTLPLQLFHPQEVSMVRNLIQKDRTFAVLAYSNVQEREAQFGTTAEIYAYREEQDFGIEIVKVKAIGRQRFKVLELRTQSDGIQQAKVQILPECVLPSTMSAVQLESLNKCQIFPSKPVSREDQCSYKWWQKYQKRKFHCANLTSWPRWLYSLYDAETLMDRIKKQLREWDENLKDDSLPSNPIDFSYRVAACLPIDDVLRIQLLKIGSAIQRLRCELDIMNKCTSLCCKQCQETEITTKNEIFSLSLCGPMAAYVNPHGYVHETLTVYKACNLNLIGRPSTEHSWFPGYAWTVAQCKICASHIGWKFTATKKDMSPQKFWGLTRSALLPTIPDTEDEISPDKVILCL
Chain of HiBit-WIZ fusion protein (Q16531 whole entry partner, the tested form may be a part): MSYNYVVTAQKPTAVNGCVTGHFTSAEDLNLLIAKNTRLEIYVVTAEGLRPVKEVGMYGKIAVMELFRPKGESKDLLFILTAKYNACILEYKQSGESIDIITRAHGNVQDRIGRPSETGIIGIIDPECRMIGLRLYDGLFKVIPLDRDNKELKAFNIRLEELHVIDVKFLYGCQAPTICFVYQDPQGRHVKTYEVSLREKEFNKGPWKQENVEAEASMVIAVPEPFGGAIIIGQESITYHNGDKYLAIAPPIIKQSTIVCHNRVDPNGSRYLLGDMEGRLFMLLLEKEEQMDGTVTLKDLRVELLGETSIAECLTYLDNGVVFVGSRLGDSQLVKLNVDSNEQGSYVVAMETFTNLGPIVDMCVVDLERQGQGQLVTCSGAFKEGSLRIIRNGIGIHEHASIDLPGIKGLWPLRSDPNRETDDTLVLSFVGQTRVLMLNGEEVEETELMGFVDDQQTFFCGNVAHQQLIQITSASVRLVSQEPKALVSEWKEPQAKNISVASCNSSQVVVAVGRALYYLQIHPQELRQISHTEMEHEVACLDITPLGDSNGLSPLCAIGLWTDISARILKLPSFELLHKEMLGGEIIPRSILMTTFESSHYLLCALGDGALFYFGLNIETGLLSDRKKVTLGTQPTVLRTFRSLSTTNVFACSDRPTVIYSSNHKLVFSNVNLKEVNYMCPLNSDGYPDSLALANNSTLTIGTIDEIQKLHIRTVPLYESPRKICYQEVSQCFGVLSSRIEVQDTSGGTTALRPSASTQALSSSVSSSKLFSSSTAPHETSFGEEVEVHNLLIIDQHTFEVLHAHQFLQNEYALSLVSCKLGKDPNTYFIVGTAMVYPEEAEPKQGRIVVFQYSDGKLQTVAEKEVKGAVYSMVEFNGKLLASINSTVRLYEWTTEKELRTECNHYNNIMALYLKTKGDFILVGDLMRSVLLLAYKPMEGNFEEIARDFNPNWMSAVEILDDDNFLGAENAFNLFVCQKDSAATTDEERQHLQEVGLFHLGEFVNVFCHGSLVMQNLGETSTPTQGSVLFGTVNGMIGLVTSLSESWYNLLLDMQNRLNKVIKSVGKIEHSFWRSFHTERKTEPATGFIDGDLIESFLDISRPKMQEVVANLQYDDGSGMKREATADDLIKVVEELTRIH

Row | Dmax [1] | remaining activity at up to 25 µM [2] | DC50 [3] | Structure (SMILES) | also measured
1 | 3.9% | 96.1% | > 25000 nM | O=C1CCC(N2Cc3cc(OC[C@@H]4CCCCN4C(=O)c4cccc(Cn5cncn5)c4)ccc3C2=O)C(=O)N1 (some centres unmarked) [Compound I-72bi] | –
2 | 91.5% | 8.45% | 0.37 nM | O=C1CCC(N2Cc3cc(OC[C@H]4CCCCN4Cc4ccc(N5CCCCC5)cc4)ccc3C2=O)C(=O)N1 (stereo partly drawn) [Compound I-161, 3-(1-oxo-5-(((R)-1-(4-(piperidin-1-yl)benzyl)piperidin-2-yl)methoxy)isoindolin-2-yl)piperidine-2,6-dione] | –
3 | 52.2% | 47.8% | > 25000 nM | COc1ccc(CN2CCCC[C@H]2COc2ccc3c(c2)CN(C2CCC(=O)NC2=O)C3=O)cc1F (some centres unmarked) [Compound I-50a] | –
4 | 70.1% | 29.9% | 2640 nM | Cc1nccn1-c1ccc(CN2CCCC[C@H]2COc2ccc3c(c2)CN(C2CCC(=O)NC2=O)C3=O)cc1 (some centres unmarked) [Compound I-50u] | –
5 | 53.1% | 46.9% | > 25000 nM | COc1cc2[nH]nc(CN3CCCC[C@H]3COc3ccc4c(c3)CN(C3CCC(=O)NC3=O)C4=O)c2cc1OCc1ccccc1 (some centres unmarked) [Compound I-50ae] | –
6 | 68.7% | 31.3% | 2200 nM | O=C1CCC(N2Cc3cc(OC[C@H]4CCCCN4Cc4ccncc4)ccc3C2=O)C(=O)N1 (some centres unmarked) [Compound I-146] | –
7 | 2.2% | 97.8% | > 25000 nM | Cc1n[nH]c(CC(=O)N2CCCC[C@H]2COc2ccc3c(c2)CN(C2CCC(=O)NC2=O)C3=O)n1 (some centres unmarked) [Compound I-72cg] | –
8 | 71.8% | 28.2% | 757 nM | CNc1ncccc1CN1CCCC[C@@H]1COc1ccc2c(c1)CN(C1CCC(=O)NC1=O)C2=O (some centres unmarked) [Compound I-50cj] | –
9 | 21.5% | 78.5% | > 25000 nM | CCN1CCOC[C@H]1COc1ccc2c(c1)CN(C1CCC(=O)NC1=O)C2=O (stereo partly drawn) [Compound I-64, 3-(5-(((S)-4-ethylmorpholin-3-yl)methoxy)-1-oxoisoindolin-2-yl)piperidine-2,6-dione] | –
10 | 40% | 60% | > 25000 nM | O=C1CCC(N2Cc3cc(OC[C@@H]4CCCCN4Cc4ccccc4OCC(=O)N4CCCCC4)ccc3C2=O)C(=O)N1 (some centres unmarked) [Compound I-50am] | –
11 | 73.9% | 26.1% | 1400 nM | COC1CCC(CN2CCCCC2C(C)Oc2ccc3c(c2)CN(C2CCC(=O)NC2=O)C3=O)CC1 (single isomer, unassigned) [Compound I-219, 3-(5-(1-(1-((4-methoxycyclohexyl)methyl)piperidin-2-yl)ethoxy)-1-oxoisoindolin-2-yl)piperidine-2,6-dione] | –
12 | 46.7% | 53.3% | > 25000 nM | CC(C)(C)Cc1cc(C(=O)N2CCCC[C@H]2COc2ccc3c(c2)CN(C2CCC(=O)NC2=O)C3=O)no1 (some centres unmarked) [Compound I-72bz] | –
13 | 80.1% | 19.9% | 2560 nM | O=C1CCC(N2Cc3cc(OC[C@H]4CCCCN4Cc4ccccc4N4CCNCC4)ccc3C2=O)C(=O)N1 (stereo partly drawn) [Compound I-106, 3-(1-oxo-5-(((R)-1-(2-(piperazin-1-yl)benzyl)piperidin-2-yl)methoxy)isoindolin-2-yl)piperidine-2,6-dione] | –
14 | 78.7% | 21.3% | 20 nM | O=C1CCC(N2Cc3cc(OC[C@H]4CCCCN4Cc4cccc5c4NCCO5)ccc3C2=O)C(=O)N1 (stereo partly drawn) [Compound I-178, 3-(5-(((R)-1-((3,4-dihydro-2H-benzo[b][1,4]oxazin-5-yl)methyl)piperidin-2-yl)methoxy)-1-oxoisoindolin-2-yl)piperidine-2,6-dione] | –
15 | 23.6% | 76.4% | > 25000 nM | O=C1CCC(N2Cc3cc(OC[C@@H]4CCCCN4C(=O)c4csc(-c5ccccc5)n4)ccc3C2=O)C(=O)N1 (some centres unmarked) [Compound I-72du] | –
16 | 36% | 64% | > 25000 nM | N#Cc1cccc(CN2CCCC[C@H]2COc2ccc3c(c2)CN(C2CCC(=O)NC2=O)C3=O)c1 (some centres unmarked) [Compound I-50bm] | –
17 | 0.7% | 99.3% | > 25000 nM | CC(C)(C)c1cc(CC(=O)N2CCCC[C@H]2COc2ccc3c(c2)CN(C2CCC(=O)NC2=O)C3=O)on1 (some centres unmarked) [Compound I-72hj] | –
18 | 97.5% | 2.52% | 48 nM | O=C1CCC(N2Cc3cc(OC[C@H]4CCCCN4Cc4ccc5ccccc5n4)ccc3C2=O)C(=O)N1 (some centres unmarked) [Compound I-152] | –

Row | Dmax [1] | remaining activity at up to 25 µM [2] | DC50 [3] | Structure (SMILES) | also measured
19 | 0.4% | 99.6% | – | COC1CCC(CN2CCCCC2C(C)Oc2ccc3c(c2)CN(C2CCC(=O)NC2=O)C3=O)CC1 (centres unmarked) [Compound I-217, 3-(5-(1-(1-((4-methoxycyclohexyl)methyl)piperidin-2-yl)ethoxy)-1-oxoisoindolin-2-yl)piperidine-2,6-dione] | –
20 | – | – | – | NS(=O)(=O)c1ccc(CN2CCCC[C@H]2COc2ccc3c(c2)CN(C2CCC(=O)NC2=O)C3=O)cc1 (some centres unmarked) [Compound I-50de] | Dmax (HEK-293T, read-out: % degradation of WIZ (100-Amax)): 58.5%; remaining activity (HEK-293T, read-out: WIZ Amax): 41.5%; DC50 (read-out: WIZ AC50; WIZ HiBit assay in 293T cells; 10-point, 5-fold dose response, highest concentration 25 μM, about 18 hours): 18400 nM
21 | 62.8% | 37.2% | 3270 nM | N#Cc1ccccc1CN1CCCC[C@@H]1COc1ccc2c(c1)CN(C1CCC(=O)NC1=O)C2=O (some centres unmarked) [Compound I-50dz] | –
22 | 78.4% | 21.6% | 4260 nM | Cc1nc(-c2cccc(CN3CCCC[C@@H]3COc3ccc4c(c3)CN(C3CCC(=O)NC3=O)C4=O)c2)no1 (some centres unmarked) [Compound I-50du] | –
23 | 87.6% | 12.4% | 51 nM | CC(C)(C)OC(=O)N1CCC(c2ccccc2CN2CCCC[C@@H]2COc2ccc3c(c2)CN(C2CCC(=O)NC2=O)C3=O)CC1 (stereo partly drawn) [Compound I-122, Tert-butyl 4-(2-(((2R)-2-(((2-(2,6-dioxopiperidin-3-yl)-1-oxoisoindolin-5-yl)oxy)methyl)piperidin-1-yl)methyl)phenyl)piperidine-1-carboxylate] | –
24 | 25.7% | 74.3% | > 25000 nM | Cc1cc(CN2CCCC[C@H]2COc2ccc3c(c2)CN(C2CCC(=O)NC2=O)C3=O)no1 (some centres unmarked) [Compound I-50by] | –
25 | 99.6% | 0.4% | 4 nM | O=C1CCC(N2Cc3cc(OC[C@H]4CCCCN4Cc4ccc(-n5nccn5)cc4)ccc3C2=O)C(=O)N1 (some centres unmarked) [Compound I-50eg] | –
26 | 8.4% | 91.6% | > 25000 nM | O=C1CCC(N2Cc3cc(OC[C@@H]4CCCCN4C(=O)Cc4cscn4)ccc3C2=O)C(=O)N1 (some centres unmarked) [Compound I-72m] | –
27 | 94.5% | 5.54% | 18 nM | O=C1CCC(N2Cc3cc(OC[C@H]4CCCCN4Cc4ccc(F)cc4Cl)ccc3C2=O)C(=O)N1 (some centres unmarked) [Compound I-114] | –
28 | 49.1% | 50.9% | > 25000 nM | O=C1CCC(N2Cc3cc(OC[C@H]4CCCCN4Cc4ncc[nH]4)ccc3C2=O)C(=O)N1 (some centres unmarked) [Compound I-50et] | –
29 | 35.7% | 64.3% | > 25000 nM | Cn1nc(C(=O)N2CCCC[C@H]2COc2ccc3c(c2)CN(C2CCC(=O)NC2=O)C3=O)cc1-c1ccccc1 (some centres unmarked) [Compound I-72ir] | –
30 | 39.6% | 60.4% | > 25000 nM | O=C1CCC(N2Cc3cc(OC[C@H]4CCCCN4Cc4ccccc4Cn4cncn4)ccc3C2=O)C(=O)N1 (some centres unmarked) [Compound I-50dd] | –
31 | 99.5% | 0.5% | 3 nM | O=C1CCC(N2Cc3cc(OC[C@H]4CCCCN4Cc4ccc(N5CCCC5)nc4)ccc3C2=O)C(=O)N1 (some centres unmarked) [Compound I-50es] | –
32 | 98% | 2% | 2 nM | O=C1CCC(N2Cc3cc(OC[C@H]4CCCCN4Cc4ccc(N5CCOCC5)cc4)ccc3C2=O)C(=O)N1 (some centres unmarked) [Compound I-50dx] | –
33 | 31.1% | 68.9% | > 25000 nM | COc1cccc2c(C(=O)N3CCCC[C@H]3COc3ccc4c(c3)CN(C3CCC(=O)NC3=O)C4=O)c[nH]c12 (some centres unmarked) [Compound I-72cq] | –
34 | 69.7% | 30.3% | 3740 nM | Cc1nc2ccccn2c1CN1CCCC[C@@H]1COc1ccc2c(c1)CN(C1CCC(=O)NC1=O)C2=O (some centres unmarked) [Compound I-50cd] | –
35 | 69.9% | 30.1% | 1470 nM | CCCCCc1ccc(C(=O)N2CCCC[C@H]2COc2ccc3c(c2)CN(C2CCC(=O)NC2=O)C3=O)cc1 (some centres unmarked) [Compound I-72t] | –

Row | Structure (SMILES) | Dmax [1] | remaining activity at up to 25 µM [2] | DC50 [3] | also measured
36 | CCN1CCC(F)(F)CC1COc1ccc2c(c1)CN(C1CCC(=O)NC1=O)C2=O (single isomer, unassigned) [I-252 (Isomer 3), 3-(5-((1-ethyl-4,4-difluoropiperidin-2-yl)methoxy)-1-oxoisoindolin-2-yl)piperidine-2,6-dione] | – | – | 45 nM | % degradation of WIZ (100-Amax) (100 minus Amax, at 25 uM; 293T cells): 55.1%; WIZ Amax (DMSO-normalized, curve-fitted percentage of WIZ-HiBit remaining at 25 uM; 293T cells): 44.9%
37 | CC(C)N1CCN(c2ccc(CN3CCCC[C@@H]3COc3ccc4c(c3)CN(C3CCC(=O)NC3=O)C4=O)cc2)CC1 (stereo partly drawn) [Compound I-227, 3-(5-(((R)-1-(4-(4-isopropylpiperazin-1-yl)benzyl)piperidin-2-yl)methoxy)-1-oxoisoindolin-2-yl)piperidine-2,6-dione] | – | – | 58 nM | Dmax (HEK-293T, read-out: % degradation of WIZ (100-Amax), 100 minus Amax; 293T cells): 64.2%; remaining activity (HEK-293T, read-out: WIZ Amax, DMSO-normalized, curve-fitted percentage of WIZ-HiBit remaining at 25 uM; 293T cells): 35.8%
